Laboratory results reported in patent EP4101830A1, “NOVEL DIARYLIODONIUM SALT MIXTURES AS LOW MOLECULAR WEIGHT PHOTOINITIATORS WITH MINIMIZED CRYSTALLIZATION BEHAVIOR AND ELEVATED SOLUBILITY” (FEW Chemicals GmbH, priority 2021, dated 2022).
Counter-ions that a name gives are not always drawn.

Columns and labels:
[1] = Solubility of photoinitiator in sol-gel coating and layer (visual); assay type: physicochemical; settings: sol-gel coating on PET foil; result in words
Description: A sol-gel coating solution consisting of 15% TEOS, 5% epoxy-modified silanes, 75% organic solvents, and 5% water was prepared according to protocols known (R.B. Figueira et al.; Journal of Coatings Technology and Research 2015, 12, 1-35). To 10 g of this coating solution were added 0.05 g of photoinitiator test compounds (see Table 5/example 7), followed by 1 hour of stirring at room temperature. This solution was applied to a PET foil at a wet thickness of 30 µm by a doctor blade device. This material was illuminated at 254 nm for 2 min or for 5 min (UV-Crosslinker device; UVP). The abrasion resistance (500 cycles) was determined with a standard method (taber-abraser) and the decrease in gloss was measured. […] TABLE 5 / Example 7

[2] = Solubility in nonpolar solvents (MEK/dowanol 1:1); assay type: physicochemical; settings: measured in MEK/dowanol 1:1
Excerpt: Thus, efficacy of photoinitiation, when given by radicals per mass, is higher for low molecular weight mixtures of the embodiment. Furthermore, the solubility in nonpolar solvents (such as ketones, ethers, esters) is improved.

Row | Compound | solubility in the coating and layer [1] | solubility [2] [mg/mL]
1 | CC(C)(C)c1ccc([I+]c2ccc(C(C)(C)C)cc2)cc1.FC(F)(F)C([O][Al-]([O]C(C(F)(F)F)(C(F)(F)F)C(F)(F)F)([O]C(C(F)(F)F)(C(F)(F)F)C(F)(F)F)[O]C(C(F)(F)F)(C(F)(F)F)C(F)(F)F)(C(F)(F)F)C(F)(F)F [bis-(4-tert.-butyl-phenyl)-iodonium tetrakis(perfluoro-tert.-butoxy)aluminate] | visible precipitates and spots in the coat | –
2 | CC(C)(C)c1ccc([I+]c2ccc(C(C)(C)C)cc2)cc1 [comparative iodonium salt 1, bis[4-(1,1-dimethylethyl)phenyl]-iodonium tetraphenylborate] | – | 149
